# Measured values from patent US8580301B2, “Psychostimulant containing pharmaceutical composition” (PEJO Iserlohn Heilmittel und Diaet GmbH & Co. KG, priority 2004, dated 2013).
# Structures can show the parent of a compound that is named as a salt.
# Assays:
# [1] = Solubility of methylphenidate hydrochloride in aqueous media / Ph. Eur. buffer solutions; format: physicochemical
# [2] = Stability in alkaline solution; format: physicochemical
structure (smiles),measurement,setting,value
COC(=O)C(c1ccccc1)C1CCCCN1 (stereo not drawn) [methylphenidate hydrochloride],solubility of the maximum daily dose of 60 mg in buffer solutions of the European Pharmacopoeia,"[1]; 60 mg in 250 ml hydrochloric acid pH 1.2, or 250 ml potassium dihydrogen phosphate buffer pH 4.6 or 6.8",dissolves easily
same,water solubility,[1]; aqueous media,extremely water soluble
same,stability in alkaline solution,[2],hydrolysis occurs
